Test results: ChEMBL document CHEMBL3885861, “Open TG-GATES”

Species on record: Rattus norvegicus
Experiment: Open TG-GATES - Regimen: Single
Type: toxicity, organism-based, Sprague-Dawley
Parameters: regimen Single, gender Male, age 6 weeks
Settings: in vivo, po, route gavage; for APTT / Bas / Eos / Fbg / Hb / Ht / Lym / MCH / MCHC / MCV / Mono / Neu / PT / Plat / RBC / Ret / WBC: tissue Blood; for KIDNEY_L / KIDNEY_R / KIDNEY_TOTAL: tissue Kidney; for LIVER: tissue Liver; for ALP / ALT / AST / BUN / CRE / Ca / DBIL / GLC / IP / K / LDH / Na / PL / RALB / TBIL / TC / TG / TP / gamma-GTP: tissue Plasma
[1] = 30 mg/kg, 3 h, dose level Middle
[2] = 30 mg/kg, 6 h, dose level Middle
[3] = 30 mg/kg, 9 h, dose level Middle
[4] = 30 mg/kg, 24 h, dose level Middle
[5] = 100 mg/kg, 3 h, dose level High
[6] = 100 mg/kg, 6 h, dose level High
[7] = 100 mg/kg, 9 h, dose level High
[8] = 100 mg/kg, 24 h, dose level High

CSc1ccc2c(c1)N(CCC1CCCCN1C)c1ccccc1S2 (stereo not given) [THIORIDAZINE]
TERMINAL_BW [1]: 215.8 g
APTT [1]: 16.7 s
Bas [1]: 0%
Eos [1]: 1%
Fbg [1]: 201.2 mg/dL
Hb [1]: 12.4 g/dL
Ht [1]: 37.2%
Lym [1]: 73.8%
MCH [1]: 22.1 pg
MCHC [1]: 33.3%
MCV [1]: 66.4 fL
Mono [1]: 8.8%
Neu [1]: 16.8%
PT [1]: 12.5 s
Plat [1]: 102.7 x10_4/uL
RBC [1]: 560.6 x10_4/ul
Ret [1]: 8.6%
WBC [1]: 77.9 x10_2/uL
KIDNEY_L [1]: 1 g
KIDNEY_R [1]: 1 g
KIDNEY_TOTAL [1]: 2 g
LIVER [1]: 10.5 g
ALP [1]: 794 IU/L
ALT [1]: 37.8 IU/L
AST [1]: 66.6 IU/L
BUN [1]: 12.4 mg/dL
CRE [1]: 0.5 mg/dL
Ca [1]: 11.1 mg/dL
DBIL [1]: 0.04 mg/dL
GLC [1]: 206.6 mg/dL
IP [1]: 10.3 mg/dL
K [1]: 4.4 meq/L
LDH [1]: 91.2 IU/L
Na [1]: 139 meq/L
PL [1]: 127.2 mg/dL
RALB [1]: 3.6 g/dL
TBIL [1]: 0.4 mg/dL
TC [1]: 70.2 mg/dL
TG [1]: 43.6 mg/dL
TP [1]: 5.2 g/dL
gamma-GTP [1]: 1 IU/L
TERMINAL_BW [2]: 216.3 g
APTT [2]: 15.9 s
Bas [2]: 0%
Eos [2]: 0.6%
Fbg [2]: 230.2 mg/dL
Hb [2]: 12.5 g/dL
Ht [2]: 37.5%
Lym [2]: 74.2%
MCH [2]: 21.9 pg
MCHC [2]: 33.2%
MCV [2]: 66 fL
Mono [2]: 7.8%
Neu [2]: 17.4%
PT [2]: 12 s
RBC [2]: 569.4 x10_4/ul
Ret [2]: 8%
WBC [2]: 91.2 x10_2/uL
KIDNEY_L [2]: 1 g
KIDNEY_R [2]: 1 g
KIDNEY_TOTAL [2]: 2 g
LIVER [2]: 10.3 g
ALP [2]: 765.6 IU/L
ALT [2]: 30.2 IU/L
AST [2]: 63.2 IU/L
BUN [2]: 10.2 mg/dL
CRE [2]: 0.5 mg/dL
Ca [2]: 10.8 mg/dL
DBIL [2]: 0.022 mg/dL
GLC [2]: 208.6 mg/dL
IP [2]: 10.9 mg/dL
K [2]: 4.5 meq/L
LDH [2]: 98.4 IU/L
Na [2]: 139.4 meq/L
PL [2]: 154 mg/dL
RALB [2]: 3.8 g/dL
TBIL [2]: 0.4 mg/dL
TC [2]: 81.4 mg/dL
TG [2]: 62.8 mg/dL
TP [2]: 5.4 g/dL
gamma-GTP [2]: 1.6 IU/L
TERMINAL_BW [3]: 213.1 g
APTT [3]: 16.2 s
Bas [3]: 0%
Eos [3]: 0.4%
Fbg [3]: 213.4 mg/dL
Hb [3]: 12.6 g/dL
Ht [3]: 38%
Lym [3]: 80.6%
MCH [3]: 21.8 pg
MCHC [3]: 33.3%
MCV [3]: 65.6 fL
Mono [3]: 6%
Neu [3]: 13.2%
PT [3]: 12.3 s
Plat [3]: 108 x10_4/uL
RBC [3]: 578.8 x10_4/ul
Ret [3]: 7.8%
WBC [3]: 109.8 x10_2/uL
KIDNEY_L [3]: 0.9 g
KIDNEY_R [3]: 1 g
KIDNEY_TOTAL [3]: 1.9 g
LIVER [3]: 9.6 g
ALP [3]: 971.8 IU/L
ALT [3]: 28.2 IU/L
AST [3]: 58.2 IU/L
BUN [3]: 12.6 mg/dL
CRE [3]: 0.6 mg/dL
Ca [3]: 10.9 mg/dL
DBIL [3]: 0.018 mg/dL
GLC [3]: 215.6 mg/dL
IP [3]: 10.6 mg/dL
K [3]: 4.3 meq/L
LDH [3]: 82.4 IU/L
Na [3]: 141 meq/L
PL [3]: 148.8 mg/dL
RALB [3]: 3.8 g/dL
TBIL [3]: 0.4 mg/dL
TC [3]: 82.2 mg/dL
TG [3]: 59.6 mg/dL
TP [3]: 5.6 g/dL
gamma-GTP [3]: 1.4 IU/L
TERMINAL_BW [4]: 225.1 g
APTT [4]: 16 s
Bas [4]: 0%
Eos [4]: 1%
Fbg [4]: 215.4 mg/dL
Hb [4]: 13.4 g/dL
Ht [4]: 40.3%
Lym [4]: 77.2%
MCH [4]: 21.5 pg
MCHC [4]: 33.3%
MCV [4]: 64.6 fL
Mono [4]: 9%
Neu [4]: 12.8%
PT [4]: 12.1 s
Plat [4]: 108 x10_4/uL
RBC [4]: 623.4 x10_4/ul
Ret [4]: 8%
WBC [4]: 124.9 x10_2/uL
KIDNEY_L [4]: 1 g
KIDNEY_R [4]: 1 g
KIDNEY_TOTAL [4]: 2 g
LIVER [4]: 11.7 g
ALP [4]: 905.2 IU/L
ALT [4]: 43 IU/L
AST [4]: 69.8 IU/L
BUN [4]: 19.4 mg/dL
CRE [4]: 0.5 mg/dL
Ca [4]: 11.5 mg/dL
DBIL [4]: 0.062 mg/dL
GLC [4]: 190.2 mg/dL
IP [4]: 9.3 mg/dL
K [4]: 4.9 meq/L
LDH [4]: 89.2 IU/L
Na [4]: 139.2 meq/L
PL [4]: 163 mg/dL
RALB [4]: 4 g/dL
TBIL [4]: 0.3 mg/dL
TC [4]: 84.4 mg/dL
TG [4]: 119.8 mg/dL
TP [4]: 5.9 g/dL
gamma-GTP [4]: 1 IU/L
TERMINAL_BW [5]: 217.7 g
APTT [5]: 16.7 s
Bas [5]: 0%
Eos [5]: 1%
Fbg [5]: 205.2 mg/dL
Hb [5]: 12.6 g/dL
Ht [5]: 38.2%
Lym [5]: 70.2%
MCH [5]: 21.9 pg
MCHC [5]: 33.1%
MCV [5]: 66.3 fL
Mono [5]: 11%
Neu [5]: 17.8%
PT [5]: 12.2 s
RBC [5]: 576.8 x10_4/ul
Ret [5]: 8.6%
WBC [5]: 56.2 x10_2/uL
KIDNEY_L [5]: 1 g
KIDNEY_R [5]: 1 g
KIDNEY_TOTAL [5]: 2 g
LIVER [5]: 10.5 g
ALP [5]: 990.6 IU/L
ALT [5]: 41.8 IU/L
AST [5]: 70.2 IU/L
BUN [5]: 11.2 mg/dL
CRE [5]: 0.6 mg/dL
Ca [5]: 11 mg/dL
DBIL [5]: 0.018 mg/dL
GLC [5]: 215 mg/dL
K [5]: 4.2 meq/L
LDH [5]: 163.8 IU/L
Na [5]: 139.8 meq/L
PL [5]: 138.2 mg/dL
RALB [5]: 3.7 g/dL
TBIL [5]: 0.3 mg/dL
TC [5]: 80.2 mg/dL
TG [5]: 34.4 mg/dL
TP [5]: 5.3 g/dL
gamma-GTP [5]: 1 IU/L
TERMINAL_BW [6]: 215 g
APTT [6]: 16.9 s
Bas [6]: 0%
Eos [6]: 0.6%
Fbg [6]: 204.6 mg/dL
Hb [6]: 12.5 g/dL
Ht [6]: 37.7%
Lym [6]: 71.6%
MCH [6]: 21.6 pg
MCHC [6]: 33.1%
MCV [6]: 65.1 fL
Mono [6]: 8.6%
Neu [6]: 18.6%
PT [6]: 12.2 s
Plat [6]: 106.5 x10_4/uL
RBC [6]: 579 x10_4/ul
Ret [6]: 7.8%
WBC [6]: 84.2 x10_2/uL
KIDNEY_L [6]: 1 g
KIDNEY_R [6]: 1 g
KIDNEY_TOTAL [6]: 2 g
LIVER [6]: 9.4 g
ALP [6]: 868.4 IU/L
ALT [6]: 30.8 IU/L
AST [6]: 63.8 IU/L
BUN [6]: 8.2 mg/dL
CRE [6]: 0.5 mg/dL
Ca [6]: 10.5 mg/dL
DBIL [6]: 0.016 mg/dL
GLC [6]: 211 mg/dL
IP [6]: 10.6 mg/dL
K [6]: 4.5 meq/L
LDH [6]: 166.6 IU/L
Na [6]: 139.6 meq/L
PL [6]: 135.2 mg/dL
RALB [6]: 3.7 g/dL
TBIL [6]: 0.4 mg/dL
TC [6]: 77.8 mg/dL
TG [6]: 19.6 mg/dL
TP [6]: 5.4 g/dL
gamma-GTP [6]: 2.6 IU/L
TERMINAL_BW [7]: 210.8 g
APTT [7]: 16.3 s
Bas [7]: 0%
Eos [7]: 0.4%
Fbg [7]: 215.6 mg/dL
Hb [7]: 12.5 g/dL
Ht [7]: 38.3%
Lym [7]: 76.8%
MCH [7]: 21 pg
MCHC [7]: 32.8%
MCV [7]: 64.1 fL
Mono [7]: 7.2%
Neu [7]: 15.6%
PT [7]: 12.1 s
Plat [7]: 110.2 x10_4/uL
RBC [7]: 598.4 x10_4/ul
Ret [7]: 7.3%
WBC [7]: 80.7 x10_2/uL
KIDNEY_L [7]: 1 g
KIDNEY_R [7]: 1 g
KIDNEY_TOTAL [7]: 2 g
LIVER [7]: 9.4 g
ALP [7]: 850.6 IU/L
ALT [7]: 31.6 IU/L
AST [7]: 61.2 IU/L
BUN [7]: 9.6 mg/dL
CRE [7]: 0.5 mg/dL
Ca [7]: 10.6 mg/dL
DBIL [7]: 0.018 mg/dL
GLC [7]: 223.4 mg/dL
IP [7]: 9.8 mg/dL
K [7]: 4.2 meq/L
LDH [7]: 144.8 IU/L
Na [7]: 141.4 meq/L
PL [7]: 155.2 mg/dL
RALB [7]: 3.7 g/dL
TBIL [7]: 0.4 mg/dL
TC [7]: 84 mg/dL
TG [7]: 28.4 mg/dL
TP [7]: 5.4 g/dL
gamma-GTP [7]: 1.2 IU/L
TERMINAL_BW [8]: 217.8 g
APTT [8]: 16.1 s
Bas [8]: 0%
Eos [8]: 1%
Fbg [8]: 209 mg/dL
Hb [8]: 13.5 g/dL
Ht [8]: 40.5%
Lym [8]: 84.4%
MCH [8]: 21.5 pg
MCHC [8]: 33.4%
MCV [8]: 64.6 fL
Mono [8]: 4.6%
Neu [8]: 10%
PT [8]: 12.2 s
Plat [8]: 125.1 x10_4/uL
RBC [8]: 628 x10_4/ul
Ret [8]: 7.3%
WBC [8]: 102 x10_2/uL
KIDNEY_L [8]: 1 g
KIDNEY_R [8]: 1 g
KIDNEY_TOTAL [8]: 2.1 g
LIVER [8]: 10.9 g
ALP [8]: 952.2 IU/L
ALT [8]: 35.4 IU/L
AST [8]: 62.4 IU/L
BUN [8]: 21.4 mg/dL
CRE [8]: 0.5 mg/dL
Ca [8]: 11.2 mg/dL
DBIL [8]: 0.022 mg/dL
GLC [8]: 210.8 mg/dL
IP [8]: 9.8 mg/dL
K [8]: 4.5 meq/L
LDH [8]: 166.8 IU/L
Na [8]: 140.4 meq/L
PL [8]: 172.6 mg/dL
RALB [8]: 4.2 g/dL
TBIL [8]: 0.3 mg/dL
TC [8]: 91.4 mg/dL
TG [8]: 97.8 mg/dL
TP [8]: 6.1 g/dL
gamma-GTP [8]: 1.4 IU/L
